Source: patent US20120208882A1, “Organic Compounds” (priority 2005, published 2012)
Where a name gives a salt, the structure may show the parent alone. Read-outs that look alike come from different tables or passages of the source.

Legend:
[1] = test system: Guinea pig tracheal potential difference; assay: Tracheal potential difference (in vivo); details: for ED50: Cavia porcellus, inhaled or nasal, i.t., read-out: GPig tracheal PD in vivo (ED50)
Description: Biochemical assays: Recombinant human prostasin and matriptase and guinea pig prostasin are generated according to methods described in Shipway et al., Biochemical and Biophysical Research Communications 2004; 324(2):953-63). The recombinant enzymes are incubated in an electrolyte buffer test compounds or vehicle in a suitable multiple well assay plate such as a 96 or 384 well plate. At a defined time after the mixing of enzyme with compound. Or vehicle, a suitable fluorescent peptide substrate is added to the assay mixture. As substrate becomes cleaved by the active enzyme; fluorescence (measured using a suitable fluorescence plate reader) increases and the rate of turnover of substrate (i.e. enzyme activity) can be quantified and thus the inhibitory effect of any test compound. The efficacy of test compounds is expressed as the concentration that induces a 50% attenuation in the enzyme activity (Ki). Epithelial ion transport: Human bronchial epithelial cells are cultured according to methods described in Danahay et al., American Journal of Physiology Lung Cell Molecular Physiology 2002; 282(2):L226-36). When suitably differentiated (days 14-21 after establishing an apical-air interface) epithelial cells are treated with either vehicle, aprotinin (200 μg/ml) or test compound for 90 minutes. Epithelia are then, placed into Ussing Chambers as described in Danahay et al., American Journal of Physiology Lung Cell Molecular Physiology 2002; 282(2):L226-36) maintaining the concentration of vehicle, aprotinin or test compound on the apical side of the epithelia. Short circuit current (ISC) is then measured by voltage clamping the epithelia to zero millivolts. The amiloride-sensitive ISC is then measured by the addition of amiloride (10 μM) to the apical surface of the epithelia. The potency of the test compound is expressed as the concentration inducing a 50% inhibition of the total aprotinin-sensitive component of the amiloride-sensitive ISC. Tracheal potential difference (in vivo): Guinea pigs are anaesthetized using a short acting inhalation anaesthesia such as halothane and N20. Whilst under short acting anaesthesia an oral gavage needle is inserted into the trachea via the oropharangeal route. Once inside the trachea, a small volume (50-200 μl) of vehicle or test compound, in a suitable aqueous-based diluent, is instilled into the airways. Animals then recover and become fully ambulatory. Alternatively test compounds can be administered to animals using aerosol or dry powder dosing. At a defined time after dosing, the animals are surgically anaesthetized using a suitable anaesthesia such as ketamine and xylazine. The trachea is then exposed and a plastic agar bridge electrode is inserted into the tracheal lumen. A reference electrode is also inserted into the layers, of muscle in the animal's neck. The tracheal potential difference, is then measured using a suitable high impedance voltmeter as described in Takahashi et al., Toxicol Appl Pharmacol. 1995; 131(1):31-6. The potency of the test compound is expressed as the dose inducing a 50% reduction in the sensitive-component of the tracheal potential difference.

[2] = test system: Human bronchial epithelial cells (amiloride-sensitive, ENaC-mediated short circuit current); assay: Epithelial ion transport: amiloride-sensitive short circuit current in Ussing chambers; assay type: cell-based; details: Epithelial cell, 1.5 h, 50% inhibition of aprotinin-sensitive component of amiloride-sensitive ISC, 90 minutes treatment, read-out: HBEC (IC50)
Description: (§1) Biochemical assays: Recombinant human prostasin and matriptase and guinea pig prostasin are generated according to methods described in Shipway et al., Biochemical and Biophysical Research Communications 2004; 324(2):953-63). The recombinant enzymes are incubated in an electrolyte buffer test compounds or vehicle in a suitable multiple well assay plate such as a 96 or 384 well plate. At a defined time after the mixing of enzyme with compound. Or vehicle, a suitable fluorescent peptide substrate is added to the assay mixture. As substrate becomes cleaved by the active enzyme; fluorescence (measured using a suitable fluorescence plate reader) increases and the rate of turnover of substrate (i.e. enzyme activity) can be quantified and thus the inhibitory effect of any test compound. The efficacy of test compounds is expressed as the concentration that induces a 50% attenuation in the enzyme activity (Ki). […] Short circuit current (ISC) is then measured by voltage clamping the epithelia to zero millivolts. The amiloride-sensitive ISC is then measured by the addition of amiloride (10 μM) to the apical surface of the epithelia. […] The tracheal potential difference, is then measured using a suitable high impedance voltmeter as described in Takahashi et al., Toxicol Appl Pharmacol. 1995; 131(1):31-6. […]

rh-prostasin = molecular target: T1, rh-prostasin (Homo sapiens, UniProt Q16651); assay: Biochemical assay, recombinant human prostasin, fluorescent peptide substrate
T1 construct: made in house
Description: as §1

rh-matriptase = molecular target: T2, rh-matriptase (Homo sapiens, UniProt Q9Y5Y6); assay: Biochemical assay, recombinant human matriptase, fluorescent peptide substrate
T2 construct: made in house
T2 sequence (Q9Y5Y6 1-855): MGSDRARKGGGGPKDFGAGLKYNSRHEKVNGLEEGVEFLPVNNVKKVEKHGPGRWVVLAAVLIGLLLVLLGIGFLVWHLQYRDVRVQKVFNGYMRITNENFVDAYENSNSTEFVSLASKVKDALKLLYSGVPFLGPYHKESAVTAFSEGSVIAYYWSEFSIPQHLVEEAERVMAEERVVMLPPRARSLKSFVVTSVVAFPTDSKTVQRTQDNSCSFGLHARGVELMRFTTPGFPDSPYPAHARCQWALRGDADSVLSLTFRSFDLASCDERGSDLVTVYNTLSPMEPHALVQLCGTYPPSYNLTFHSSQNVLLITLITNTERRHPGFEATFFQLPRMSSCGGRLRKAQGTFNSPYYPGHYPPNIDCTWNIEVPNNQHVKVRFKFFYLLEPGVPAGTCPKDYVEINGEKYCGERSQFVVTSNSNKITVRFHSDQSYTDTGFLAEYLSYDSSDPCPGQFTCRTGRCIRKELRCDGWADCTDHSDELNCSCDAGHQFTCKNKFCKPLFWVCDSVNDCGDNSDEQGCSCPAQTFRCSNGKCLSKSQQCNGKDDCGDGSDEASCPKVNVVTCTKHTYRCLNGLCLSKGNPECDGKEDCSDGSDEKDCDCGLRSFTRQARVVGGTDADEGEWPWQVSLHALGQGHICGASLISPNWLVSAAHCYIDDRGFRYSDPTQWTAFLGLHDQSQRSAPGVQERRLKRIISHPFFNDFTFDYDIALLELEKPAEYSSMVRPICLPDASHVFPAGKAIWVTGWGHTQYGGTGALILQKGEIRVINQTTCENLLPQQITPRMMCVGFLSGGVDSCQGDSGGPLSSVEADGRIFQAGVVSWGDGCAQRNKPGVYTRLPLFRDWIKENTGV
Description: as §1

rGPig-prostasin = rGPig-prostasin (Cavia porcellus, UniProt A0A286XIW9); assay: Biochemical assay, recombinant guinea pig prostasin, fluorescent peptide substrate
Description: as §1

rGPig-prostasin, sequence (A0A286XIW9 1-343): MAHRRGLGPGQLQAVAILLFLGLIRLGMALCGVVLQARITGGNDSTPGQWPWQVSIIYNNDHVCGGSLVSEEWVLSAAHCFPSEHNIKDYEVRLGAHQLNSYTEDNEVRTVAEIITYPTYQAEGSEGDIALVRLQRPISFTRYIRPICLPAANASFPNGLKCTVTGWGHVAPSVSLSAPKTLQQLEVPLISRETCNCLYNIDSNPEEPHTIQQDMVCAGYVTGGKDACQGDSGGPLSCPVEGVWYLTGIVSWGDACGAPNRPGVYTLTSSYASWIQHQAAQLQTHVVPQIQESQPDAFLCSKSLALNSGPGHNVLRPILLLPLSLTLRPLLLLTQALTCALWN
T1 sequence (Q16651 33-343): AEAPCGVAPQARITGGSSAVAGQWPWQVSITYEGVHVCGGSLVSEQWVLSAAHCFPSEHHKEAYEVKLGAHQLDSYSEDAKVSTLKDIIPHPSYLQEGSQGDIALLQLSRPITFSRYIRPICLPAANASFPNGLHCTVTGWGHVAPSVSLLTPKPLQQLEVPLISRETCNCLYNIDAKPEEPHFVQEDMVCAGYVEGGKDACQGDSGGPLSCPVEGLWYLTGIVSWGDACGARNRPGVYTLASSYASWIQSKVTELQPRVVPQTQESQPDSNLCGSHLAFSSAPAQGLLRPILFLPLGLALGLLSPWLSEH

IC50 [2]: 50 nM
Ki (rh-prostasin): 429 nM
Ki (rh-matriptase): 5 nM
Ki (rGPig-prostasin): 98 nM
Structure (SMILES): CN(C)C(=O)COC(=O)Cc1ccc(OC(=O)c2ccc(NC(=N)N)cc2)cc1 [Camostat mesylate, N,N-dimethyl-carbamoylmethyl-p-(p-guanidinobenzoyloxy)phenylacetate]
Mean absolute tracheal potential difference (± s.e. mean) ([1]; 2 hr, 1 μg/kg intra-tracheal): −10.0 ± 0.7
Mean absolute tracheal potential difference (± s.e. mean) ([1]; 2 hr, 3 μg/kg intra-tracheal): −7.3 ± 0.5
Mean absolute tracheal potential difference (± s.e. mean) ([1]; 2 hr, 10 μg/kg intra-tracheal): −6.4 ± 0.5
Mean absolute tracheal potential difference (± s.e. mean) ([1]; 2 hr, 30 μg/kg intra-tracheal): −5.3 ± 0.3
Mean absolute tracheal potential difference (± s.e. mean) ([1]; 2 hr, 100 μg/kg intra-tracheal): −4.7 ± 0.5
Mean absolute tracheal potential difference (± s.e. mean) ([1]; 5 hr, 3 μg/kg intra-tracheal): −10.8 ± 1.0
Mean absolute tracheal potential difference (± s.e. mean) ([1]; 5 hr, 10 μg/kg intra-tracheal): −9.7 ± 1.5
Mean absolute tracheal potential difference (± s.e. mean) ([1]; 5 hr, 30 μg/kg intra-tracheal): −7.5 ± 0.4
Mean absolute tracheal potential difference (± s.e. mean) ([1]; 5 hr, 100 μg/kg intra-tracheal): −6.5 ± 0.3
Mean absolute tracheal potential difference (± s.e. mean) ([1]; 5 hr, 300 μg/kg intra-tracheal): −5.2 ± 0.3
Mean absolute tracheal potential difference (± s.e. mean) ([1]; 5 hr, 1000 μg/kg intra-tracheal): −5.7 ± 0.4
ED50 ([1]; 2 hr after dosing): 0.0033 mg/kg
ED50 ([1]; 5 hr after dosing): 0.026 mg/kg
